Source: patent US20200237705A1, “METHOD TO TREAT ANTIMICROBIAL RESISTANT CANDIDA” (Hennepin Life Sciences, LLC, priority 2017, published 2020)

Assays:
[1] = system: C. auris; experiment: Killing of C. auris clinical isolates by GML alone in Todd Hewitt growth medium (plate counts); assay type: cell-based, Candida auris; conditions: two clinical isolates, 37° C., by 8 hours' incubation, limit of detection 10 CFUs/ml
Source text: In a first study performed was to test the ability of GML alone to kill two recent clinical isolates of C. auris (FIG. 1). […] The lower limit of detection of Candida is 10 CFUs/ml for these studies.

[2] = system: C. albicans, C. glabrata, C. krusei, C. parapsilosis, and C. pseudotropicalis; conditions: in vitro; Strandberg et al. 2010; cited from earlier work
[3] = system: Candida; conditions: women of menstrual age; Strandberg et al. 2010; cited from earlier work

## Glycerol monolaurate [GML]
[1]
  GML concentrations at which C. auris is killed (significant killing defined as ≥3 logs killing): ≥ 50 μg/ml
[2]
  Ability to kill selected Candida species: ability to kill selected Candida species
[3]
  Numbers of Candida vaginally in women: can reduce the numbers of Candida vaginally
